*1 amine or outer side, *2 acyl side, *3 side chain or, on linkers, in order; H or OH if unused. Where a SMILES comes first, the peptide text is derived from it. Bridges are numbered along the chain shown (N, C = ends). [ ]: non-standard residue; d: D form. The star is where a group is joined. hTyr(3S-OH,4S-OH,3'-OSO3H) = N[C@H](C(=O)O)[C@H](O)[C@@H](O)c1ccc(O)c(OS(=O)(=O)O)c1; Orn(4R-OH,5R-OH) = O=C([C@H](C[C@@H](O)[C@@H](O)N[*:3])N[*:1])[*:2]; Pro(3S-OH,4S-Me) = C[C@H]1CN[C@H](C(=O)O)[C@H]1O; X1 = CCCCCOc1ccc(-c2cc(-c3ccc(C(=O)*)cc3)no2)cc1; Gln(3R-OH) = NC(=O)C[C@@H](O)[C@H](N)C(=O)O; Hyp = O=C(O)[C@@H]1C[C@@H](O)CN1
Tests used:
Thromboxane A2 receptor [1] = biological target: T1, Thromboxane A2 receptor (Homo sapiens, UniProt P21731); type: functional, cell-based
T1 sequence (P21731 whole entry): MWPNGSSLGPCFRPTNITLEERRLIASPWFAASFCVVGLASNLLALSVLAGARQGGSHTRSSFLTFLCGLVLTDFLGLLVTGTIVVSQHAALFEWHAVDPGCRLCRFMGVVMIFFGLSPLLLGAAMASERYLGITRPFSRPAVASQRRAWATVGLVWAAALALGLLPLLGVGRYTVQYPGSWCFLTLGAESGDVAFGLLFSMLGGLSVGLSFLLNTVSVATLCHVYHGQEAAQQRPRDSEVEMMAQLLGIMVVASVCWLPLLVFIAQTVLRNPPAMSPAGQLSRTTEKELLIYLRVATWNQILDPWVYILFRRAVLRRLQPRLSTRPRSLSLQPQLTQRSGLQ

[2] = biological target: T2, 5-hydroxytryptamine receptor 1A (Homo sapiens, UniProt P08908)
T2 sequence (P08908 whole entry): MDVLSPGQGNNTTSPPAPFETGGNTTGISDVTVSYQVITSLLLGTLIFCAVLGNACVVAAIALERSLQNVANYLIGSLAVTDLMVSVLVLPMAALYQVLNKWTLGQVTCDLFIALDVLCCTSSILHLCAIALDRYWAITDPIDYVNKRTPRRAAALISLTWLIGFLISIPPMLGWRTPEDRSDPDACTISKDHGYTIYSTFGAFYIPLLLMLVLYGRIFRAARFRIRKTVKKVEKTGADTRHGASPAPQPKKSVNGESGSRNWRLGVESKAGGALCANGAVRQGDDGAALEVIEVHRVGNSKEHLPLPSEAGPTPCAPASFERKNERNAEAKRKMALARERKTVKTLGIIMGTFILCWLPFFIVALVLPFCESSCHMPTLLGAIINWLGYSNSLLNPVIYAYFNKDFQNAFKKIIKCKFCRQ

Acetylcholinesterase = Acetylcholinesterase (Homo sapiens, UniProt P22303); type: functional
Sequence of Acetylcholinesterase (P22303 whole entry): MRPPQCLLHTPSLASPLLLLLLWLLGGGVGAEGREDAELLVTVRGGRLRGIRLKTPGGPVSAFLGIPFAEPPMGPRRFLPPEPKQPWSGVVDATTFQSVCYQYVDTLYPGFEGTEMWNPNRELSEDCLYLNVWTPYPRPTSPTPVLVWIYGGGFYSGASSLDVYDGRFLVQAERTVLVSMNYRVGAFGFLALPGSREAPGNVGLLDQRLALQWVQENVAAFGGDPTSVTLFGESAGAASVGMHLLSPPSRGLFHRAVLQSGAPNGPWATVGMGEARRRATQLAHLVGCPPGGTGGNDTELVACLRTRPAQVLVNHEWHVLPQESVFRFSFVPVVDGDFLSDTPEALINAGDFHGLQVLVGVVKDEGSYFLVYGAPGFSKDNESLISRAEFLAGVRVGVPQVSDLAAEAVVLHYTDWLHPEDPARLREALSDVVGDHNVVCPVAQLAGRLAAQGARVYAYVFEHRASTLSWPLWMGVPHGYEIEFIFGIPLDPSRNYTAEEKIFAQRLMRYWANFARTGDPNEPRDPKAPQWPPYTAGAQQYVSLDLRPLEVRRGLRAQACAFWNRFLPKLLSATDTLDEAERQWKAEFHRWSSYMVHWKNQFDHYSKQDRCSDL

[3] = biological target: 5-hydroxytryptamine receptor 2B (Homo sapiens, UniProt P41595); type: functional, cell-based
Sequence of 5-hydroxytryptamine receptor 2B (P41595 whole entry): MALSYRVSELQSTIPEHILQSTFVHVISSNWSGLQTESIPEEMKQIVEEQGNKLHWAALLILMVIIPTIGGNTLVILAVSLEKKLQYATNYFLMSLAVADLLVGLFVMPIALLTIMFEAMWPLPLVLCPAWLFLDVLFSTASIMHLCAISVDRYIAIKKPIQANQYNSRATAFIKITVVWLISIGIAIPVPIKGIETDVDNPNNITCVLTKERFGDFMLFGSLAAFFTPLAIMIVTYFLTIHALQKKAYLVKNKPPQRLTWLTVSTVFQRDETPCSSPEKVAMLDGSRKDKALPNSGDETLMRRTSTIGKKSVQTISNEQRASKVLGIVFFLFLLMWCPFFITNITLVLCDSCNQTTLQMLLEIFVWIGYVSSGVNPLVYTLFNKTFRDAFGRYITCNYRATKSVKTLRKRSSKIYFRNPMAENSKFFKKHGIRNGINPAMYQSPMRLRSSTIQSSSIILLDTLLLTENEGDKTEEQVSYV

[4] = biological target: T3, Prostaglandin G/H synthase 1 (Homo sapiens, UniProt P23219); type: functional
D(3) dopamine receptor = D(3) dopamine receptor (Homo sapiens, UniProt P35462)
D(1A) dopamine receptor = D(1A) dopamine receptor (Homo sapiens, UniProt P21728)
Sequence of D(1A) dopamine receptor (P21728 whole entry): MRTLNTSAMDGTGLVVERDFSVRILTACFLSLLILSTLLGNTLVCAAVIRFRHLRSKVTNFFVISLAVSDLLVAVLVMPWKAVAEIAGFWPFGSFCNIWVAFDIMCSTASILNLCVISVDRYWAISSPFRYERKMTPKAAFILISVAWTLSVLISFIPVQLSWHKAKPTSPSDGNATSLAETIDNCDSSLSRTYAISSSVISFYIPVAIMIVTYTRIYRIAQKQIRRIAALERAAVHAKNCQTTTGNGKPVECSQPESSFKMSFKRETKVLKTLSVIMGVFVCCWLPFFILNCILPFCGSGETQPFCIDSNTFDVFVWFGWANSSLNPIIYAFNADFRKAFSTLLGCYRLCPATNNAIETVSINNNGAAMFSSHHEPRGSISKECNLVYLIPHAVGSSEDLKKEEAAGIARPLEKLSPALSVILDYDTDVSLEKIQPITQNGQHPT

[5] = biological target: T4, Amine oxidase [flavin-containing] A (Homo sapiens, UniProt P21397); type: functional
T4 sequence (P21397 whole entry): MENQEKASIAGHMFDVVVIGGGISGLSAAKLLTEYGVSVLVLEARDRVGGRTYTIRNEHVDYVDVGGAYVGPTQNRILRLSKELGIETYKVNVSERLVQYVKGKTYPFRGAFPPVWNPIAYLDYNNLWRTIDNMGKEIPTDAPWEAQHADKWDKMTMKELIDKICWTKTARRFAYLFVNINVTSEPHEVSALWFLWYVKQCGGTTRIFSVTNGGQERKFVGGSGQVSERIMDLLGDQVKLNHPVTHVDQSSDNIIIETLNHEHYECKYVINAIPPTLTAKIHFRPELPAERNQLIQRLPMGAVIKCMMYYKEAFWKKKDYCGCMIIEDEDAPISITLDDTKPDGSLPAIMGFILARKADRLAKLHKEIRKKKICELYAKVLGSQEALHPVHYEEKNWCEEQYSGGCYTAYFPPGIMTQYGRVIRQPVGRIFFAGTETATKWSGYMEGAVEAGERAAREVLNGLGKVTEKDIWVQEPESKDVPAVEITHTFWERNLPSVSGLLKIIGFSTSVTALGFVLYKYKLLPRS

[6] = biological target: T5, Alpha-2A adrenergic receptor (Homo sapiens, UniProt P08913)
T5 sequence (P08913 whole entry): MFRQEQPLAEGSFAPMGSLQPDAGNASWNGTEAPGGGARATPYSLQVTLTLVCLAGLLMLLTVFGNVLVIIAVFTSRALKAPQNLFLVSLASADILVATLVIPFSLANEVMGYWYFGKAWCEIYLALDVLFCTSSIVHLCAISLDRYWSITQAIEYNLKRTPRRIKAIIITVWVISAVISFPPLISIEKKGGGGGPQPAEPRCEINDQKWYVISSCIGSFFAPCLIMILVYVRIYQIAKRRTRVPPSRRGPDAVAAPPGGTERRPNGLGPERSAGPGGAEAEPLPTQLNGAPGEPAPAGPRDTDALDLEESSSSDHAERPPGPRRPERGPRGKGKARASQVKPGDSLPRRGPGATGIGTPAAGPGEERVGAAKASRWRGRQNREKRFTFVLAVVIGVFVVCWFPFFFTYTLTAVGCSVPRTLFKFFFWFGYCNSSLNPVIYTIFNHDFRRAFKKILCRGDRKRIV

[7] = biological target: Sodium-dependent dopamine transporter (Homo sapiens, UniProt Q01959)
Sequence of Sodium-dependent dopamine transporter (Q01959 whole entry): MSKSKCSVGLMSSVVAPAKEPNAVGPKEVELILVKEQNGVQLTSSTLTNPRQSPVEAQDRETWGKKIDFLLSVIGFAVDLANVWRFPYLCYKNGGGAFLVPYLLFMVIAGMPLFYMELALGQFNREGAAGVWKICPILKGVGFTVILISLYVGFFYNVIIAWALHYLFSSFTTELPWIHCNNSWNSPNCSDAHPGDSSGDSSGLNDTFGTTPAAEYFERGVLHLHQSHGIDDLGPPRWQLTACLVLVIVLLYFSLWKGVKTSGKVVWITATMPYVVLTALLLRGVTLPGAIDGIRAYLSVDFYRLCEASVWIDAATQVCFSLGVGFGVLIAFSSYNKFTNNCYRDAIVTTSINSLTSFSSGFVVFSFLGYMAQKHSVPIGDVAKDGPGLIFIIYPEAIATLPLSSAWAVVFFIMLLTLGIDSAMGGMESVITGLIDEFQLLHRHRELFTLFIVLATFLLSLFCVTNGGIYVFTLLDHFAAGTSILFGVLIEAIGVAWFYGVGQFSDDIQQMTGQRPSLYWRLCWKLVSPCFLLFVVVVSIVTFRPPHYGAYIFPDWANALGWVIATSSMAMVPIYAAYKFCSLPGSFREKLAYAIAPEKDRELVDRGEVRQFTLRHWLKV

Mu-type opioid receptor = Mu-type opioid receptor (Homo sapiens, UniProt P35372)
[8] = biological target: 3',5'-cyclic-AMP phosphodiesterase 4A (Homo sapiens, UniProt P27815); type: functional
Sequence of 3',5'-cyclic-AMP phosphodiesterase 4A (P27815 whole entry): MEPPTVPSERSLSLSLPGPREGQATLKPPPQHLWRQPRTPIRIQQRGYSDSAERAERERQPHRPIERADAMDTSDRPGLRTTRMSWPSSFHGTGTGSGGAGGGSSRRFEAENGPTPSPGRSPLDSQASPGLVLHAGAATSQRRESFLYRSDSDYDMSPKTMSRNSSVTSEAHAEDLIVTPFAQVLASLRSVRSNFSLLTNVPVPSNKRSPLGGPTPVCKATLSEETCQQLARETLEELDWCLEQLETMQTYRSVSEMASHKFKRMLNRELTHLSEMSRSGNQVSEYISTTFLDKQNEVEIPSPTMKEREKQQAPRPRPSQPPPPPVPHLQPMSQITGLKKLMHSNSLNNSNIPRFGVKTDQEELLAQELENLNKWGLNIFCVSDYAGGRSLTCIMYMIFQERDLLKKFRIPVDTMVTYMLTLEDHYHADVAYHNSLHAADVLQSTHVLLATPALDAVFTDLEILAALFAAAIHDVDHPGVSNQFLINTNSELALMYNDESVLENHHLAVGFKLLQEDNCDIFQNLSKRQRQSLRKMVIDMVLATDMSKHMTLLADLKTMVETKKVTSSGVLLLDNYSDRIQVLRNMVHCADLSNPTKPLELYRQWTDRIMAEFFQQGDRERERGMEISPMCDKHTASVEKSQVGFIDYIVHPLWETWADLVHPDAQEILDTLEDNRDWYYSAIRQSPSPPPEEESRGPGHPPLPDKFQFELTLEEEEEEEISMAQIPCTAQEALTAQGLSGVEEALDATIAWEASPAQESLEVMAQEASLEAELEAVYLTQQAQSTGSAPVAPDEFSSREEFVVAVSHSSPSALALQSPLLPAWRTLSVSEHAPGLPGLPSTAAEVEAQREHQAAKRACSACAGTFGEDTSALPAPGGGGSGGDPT

[9] = biological target: cGMP-inhibited 3',5'-cyclic phosphodiesterase 3A (Homo sapiens, UniProt Q14432); type: functional
Sequence of cGMP-inhibited 3',5'-cyclic phosphodiesterase 3A (Q14432 whole entry): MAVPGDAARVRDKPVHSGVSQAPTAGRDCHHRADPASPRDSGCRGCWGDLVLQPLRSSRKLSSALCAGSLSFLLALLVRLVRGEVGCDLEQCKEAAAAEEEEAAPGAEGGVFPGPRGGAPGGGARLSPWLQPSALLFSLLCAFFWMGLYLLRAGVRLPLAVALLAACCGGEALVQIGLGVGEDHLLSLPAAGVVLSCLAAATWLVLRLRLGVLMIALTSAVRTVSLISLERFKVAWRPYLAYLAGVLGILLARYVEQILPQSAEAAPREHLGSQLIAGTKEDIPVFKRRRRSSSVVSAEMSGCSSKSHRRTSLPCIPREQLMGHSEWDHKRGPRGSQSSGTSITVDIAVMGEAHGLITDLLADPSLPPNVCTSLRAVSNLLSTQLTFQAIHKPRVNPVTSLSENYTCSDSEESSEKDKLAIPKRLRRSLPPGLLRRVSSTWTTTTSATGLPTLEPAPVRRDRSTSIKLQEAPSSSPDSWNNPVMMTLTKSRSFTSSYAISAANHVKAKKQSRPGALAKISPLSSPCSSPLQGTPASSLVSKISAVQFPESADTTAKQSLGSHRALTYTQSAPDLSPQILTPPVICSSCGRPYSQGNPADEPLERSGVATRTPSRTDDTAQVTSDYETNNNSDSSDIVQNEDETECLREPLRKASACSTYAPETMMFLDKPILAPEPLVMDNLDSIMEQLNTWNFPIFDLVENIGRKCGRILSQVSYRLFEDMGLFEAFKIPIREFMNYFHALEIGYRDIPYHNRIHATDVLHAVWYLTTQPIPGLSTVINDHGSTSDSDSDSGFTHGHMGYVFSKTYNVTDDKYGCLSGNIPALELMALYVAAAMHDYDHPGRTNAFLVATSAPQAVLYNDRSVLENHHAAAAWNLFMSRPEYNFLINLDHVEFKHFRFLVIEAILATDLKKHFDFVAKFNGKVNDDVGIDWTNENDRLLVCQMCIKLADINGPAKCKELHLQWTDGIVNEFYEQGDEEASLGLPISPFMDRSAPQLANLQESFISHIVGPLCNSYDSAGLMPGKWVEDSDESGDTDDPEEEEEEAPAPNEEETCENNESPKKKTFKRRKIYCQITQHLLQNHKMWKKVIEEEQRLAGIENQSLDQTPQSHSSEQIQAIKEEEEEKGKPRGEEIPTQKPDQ

[10] = biological target: T3, Prostaglandin G/H synthase 1; type: functional; remark: listed apart in the source
[11] = biological target: Sodium-dependent noradrenaline transporter (Homo sapiens, UniProt P23975)
Sequence of Sodium-dependent noradrenaline transporter (P23975 whole entry): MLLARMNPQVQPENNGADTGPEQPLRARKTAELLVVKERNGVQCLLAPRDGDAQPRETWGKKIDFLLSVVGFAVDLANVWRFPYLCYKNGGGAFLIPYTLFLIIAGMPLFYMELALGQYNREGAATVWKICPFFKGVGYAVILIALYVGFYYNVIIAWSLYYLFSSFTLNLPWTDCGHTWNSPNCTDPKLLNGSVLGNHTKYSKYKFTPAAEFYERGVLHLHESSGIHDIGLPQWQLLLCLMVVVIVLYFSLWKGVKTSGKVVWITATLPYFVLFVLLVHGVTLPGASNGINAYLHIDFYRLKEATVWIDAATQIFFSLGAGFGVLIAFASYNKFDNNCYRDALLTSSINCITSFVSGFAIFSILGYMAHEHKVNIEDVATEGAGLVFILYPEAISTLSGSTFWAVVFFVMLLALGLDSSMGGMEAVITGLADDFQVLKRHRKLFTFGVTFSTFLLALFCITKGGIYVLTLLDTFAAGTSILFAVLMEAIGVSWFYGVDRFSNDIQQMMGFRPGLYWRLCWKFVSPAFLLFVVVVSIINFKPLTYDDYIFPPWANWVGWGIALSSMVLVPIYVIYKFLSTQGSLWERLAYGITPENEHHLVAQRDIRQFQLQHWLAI

Prothrombin = Prothrombin (Homo sapiens, UniProt P00734); type: functional
Thromboxane A2 receptor [12] = biological target: T1, Thromboxane A2 receptor; type: functional, cell-based; remark: listed apart in the source
Note: assay procedure not described here.

SMILES	AC50 (Thromboxane A2 receptor [1])	AC50 [2]	AC50 (Acetylcholinesterase)	AC50 [3]	AC50 [4]	AC50 (D(3) dopamine receptor)	AC50 (D(1A) dopamine receptor)	AC50 [5]	AC50 [6]	AC50 [7]	AC50 (Mu-type opioid receptor)	AC50 [8]	AC50 [9]	AC50 [10]	AC50 [11]	AC50 (Prothrombin)	AC50 (Thromboxane A2 receptor [12])
CCCCCOc1ccc(-c2cc(-c3ccc(C(=O)N[C@H]4C[C@@H](O)[C@@H](O)NC(=O)[C@@H]5[C@@H](O)[C@@H](C)CN5C(=O)[C@H]([C@H](O)CC(N)=O)NC(=O)[C@H]([C@H](O)[C@@H](O)c5ccc(O)c(OS(=O)(=O)O)c5)NC(=O)[C@@H]5C[C@@H](O)CN5C(=O)[C@H]([C@@H](C)O)NC4=O)cc3)no2)cc1 [MICAFUNGIN] (X1-[Orn(4R-OH,5R-OH)]T[Hyp][hTyr(3S-OH,4S-OH,3'-OSO3H)][Gln(3R-OH)][Pro(3S-OH,4S-Me)]; lactam 1-C)	7.12 µM	> 30 µM	> 30 µM	> 30 µM	> 30 µM	> 30 µM	> 30 µM	> 30 µM	> 30 µM	21.7 µM	7.68 µM	29.5 µM	> 30 µM	> 30 µM	14.6 µM	> 30 µM	> 30 µM
CCOc1cc(N)c(Cl)cc1C(=O)NCC1CN(Cc2ccc(F)cc2)CCO1 (configuration not stated) [MOSAPRIDE]	> 30 µM	5.18 µM	> 30 µM	> 30 µM	> 30 µM	6.86 µM	> 30 µM	> 30 µM	3.01 µM	> 30 µM	> 30 µM	> 30 µM	> 30 µM	> 30 µM	> 30 µM	> 30 µM	> 30 µM
CN1CCC[C@H]1c1cccnc1 [NICOTINE]	> 30 µM	> 30 µM	> 30 µM	> 30 µM	22 µM	> 30 µM	> 30 µM	> 30 µM	> 30 µM	> 30 µM	> 30 µM	> 30 µM	> 30 µM	> 30 µM	> 30 µM	> 30 µM	> 30 µM
C#C[C@]1(O)CC[C@H]2[C@@H]3CCC4=C(CCC(=O)C4)[C@H]3CC[C@@]21C [NORETHYNODREL]	24.2 µM	> 30 µM	> 30 µM	> 30 µM	11.8 µM	> 30 µM	> 30 µM	> 30 µM	> 30 µM	> 30 µM	> 30 µM	> 30 µM	23.4 µM	> 30 µM	> 30 µM	> 30 µM	> 30 µM
CN(C)c1cc(CNCC(C)(C)C)c(O)c2c1C[C@H]1C[C@H]3[C@H](N(C)C)C(O)=C(C(N)=O)C(=O)[C@@]3(O)C(O)=C1C2=O [OMADACYCLINE]	> 10 µM	> 30 µM	> 10 µM	> 30 µM	0.25 µM	> 30 µM	> 30 µM	> 30 µM	> 30 µM	> 30 µM	> 30 µM	> 30 µM	> 30 µM	0.16 µM	> 30 µM	> 30 µM	> 30 µM
O=C1[C@H]2CCCC[C@H]2C(=O)N1CCCCN1CCN(c2nsc3ccccc23)CC1 [PEROSPIRONE]	7.44 µM	0.003 µM	> 30 µM	> 30 µM	> 30 µM	0.003 µM	0.054 µM	> 30 µM	0.22 µM	3.31 µM	9.84 µM	> 30 µM	> 30 µM	> 30 µM	2.98 µM	> 30 µM	> 30 µM
